Results as given in PubChem BioAssay AID1919010 (Molecular Pharmacology Branch, DTP, NCI, 2023).

System: Hs578T complex spheroid growth, percent test/control
Experiment: Anticancer human tumor Hs578T cell line growth inhibition [AhR];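 also: luminescent viability signal as a proxy for spheroid growth; spheroids exposed to agents for one week after three days of growth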
Details: for IC50: curve of first compound; for viability, T/C: stronger effect = lower value
Procedure, shortened: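 Complex tumor spheroids co-cultured with HUVEC and human MSC stroma; AhR antagonists tested in combination with standard-of-care and investigational agents. Top concentration at or near clinical Cmax (else 10 microM), half-log dilutions; growth expressed as percent test/control.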

[1] = second compound 0.1 µM, first compound 0.000949 µM
[2] = second compound 0.1 µM, first compound 0.003 µM
[3] = second compound 0.1 µM, first compound 0.00949 µM
[4] = second compound 0.1 µM, first compound 0.03 µM
[5] = second compound 0.1 µM, first compound 0.0949 µM
[6] = second compound 0.1 µM, first compound 0.3 µM
[7] = second compound 0.316 µM, first compound 0.000949 µM
[8] = second compound 0.316 µM, first compound 0.003 µM
[9] = second compound 0.316 µM, first compound 0.00949 µM
[10] = second compound 0.316 µM, first compound 0.03 µM
[11] = second compound 0.316 µM, first compound 0.0949 µM
[12] = second compound 0.316 µM, first compound 0.3 µM
[13] = second compound 1 µM, first compound 0.000949 µM
[14] = second compound 1 µM, first compound 0.003 µM
[15] = second compound 1 µM, first compound 0.00949 µM
[16] = second compound 1 µM, first compound 0.03 µM
[17] = second compound 1 µM, first compound 0.0949 µM
[18] = second compound 1 µM, first compound 0.3 µM
[19] = second compound 3.16 µM, first compound 0.000949 µM
[20] = second compound 3.16 µM, first compound 0.003 µM
[21] = second compound 3.16 µM, first compound 0.00949 µM
[22] = second compound 3.16 µM, first compound 0.03 µM
[23] = second compound 3.16 µM, first compound 0.0949 µM
[24] = second compound 3.16 µM, first compound 0.3 µM
[25] = second compound 10 µM, first compound 0.000949 µM
[26] = second compound 10 µM, first compound 0.003 µM
[27] = second compound 10 µM, first compound 0.00949 µM
[28] = second compound 10 µM, first compound 0.03 µM
[29] = second compound 10 µM, first compound 0.0949 µM
[30] = second compound 10 µM, first compound 0.3 µM
[31] = second compound 0.1 µM, first compound 0.0316 µM
[32] = second compound 0.1 µM, first compound 0.1 µM
[33] = second compound 0.1 µM, first compound 0.316 µM
[34] = second compound 0.1 µM, first compound 1 µM
[35] = second compound 0.1 µM, first compound 3.16 µM
[36] = second compound 0.1 µM, first compound 10 µM
[37] = second compound 0.316 µM, first compound 0.0316 µM
[38] = second compound 0.316 µM, first compound 0.1 µM
[39] = second compound 0.316 µM, first compound 0.316 µM
[40] = second compound 0.316 µM, first compound 1 µM
[41] = second compound 0.316 µM, first compound 3.16 µM
[42] = second compound 0.316 µM, first compound 10 µM
[43] = second compound 1 µM, first compound 0.0316 µM
[44] = second compound 1 µM, first compound 0.1 µM
[45] = second compound 1 µM, first compound 0.316 µM
[46] = second compound 1 µM, first compound 1 µM
[47] = second compound 1 µM, first compound 3.16 µM
[48] = second compound 1 µM, first compound 10 µM
[49] = second compound 3.16 µM, first compound 0.0316 µM
[50] = second compound 3.16 µM, first compound 0.1 µM
[51] = second compound 3.16 µM, first compound 0.316 µM
[52] = second compound 3.16 µM, first compound 1 µM
[53] = second compound 3.16 µM, first compound 3.16 µM
[54] = second compound 3.16 µM, first compound 10 µM
[55] = second compound 10 µM, first compound 0.0316 µM
[56] = second compound 10 µM, first compound 0.1 µM
[57] = second compound 10 µM, first compound 0.316 µM
[58] = second compound 10 µM, first compound 1 µM
[59] = second compound 10 µM, first compound 3.16 µM
[60] = second compound 10 µM, first compound 10 µM

SMILES: Nc1ncn(C2CC(O)C(CO)S2)c(=O)n1 (stereo not given) + Cc1ccccc1N=Nc1ccc(NC(=O)c2ccnn2C)c(C)c1
- IC50 (second compound 0.1 µM): > 300 nM
- IC50 (second compound 0.316 µM): > 300 nM
- IC50 (second compound 1 µM): > 300 nM
- IC50 (second compound 3.16 µM): > 300 nM
- IC50 (second compound 10 µM): > 300 nM
- viability, T/C [1]: 103%
- viability, T/C [2]: 109%
- viability, T/C [3]: 102%
- viability, T/C [4]: 99.8%
- viability, T/C [5]: 98.1%
- viability, T/C [6]: 85%
- viability, T/C [7]: 117%
- viability, T/C [8]: 101%
- viability, T/C [9]: 103%
- viability, T/C [10]: 102%
- viability, T/C [11]: 94.3%
- viability, T/C [12]: 96.5%
- viability, T/C [13]: 106%
- viability, T/C [14]: 112%
- viability, T/C [15]: 106%
- viability, T/C [16]: 90.5%
- viability, T/C [17]: 94.8%
- viability, T/C [18]: 84%
- viability, T/C [19]: 83%
- viability, T/C [20]: 98.8%
- viability, T/C [21]: 94.7%
- viability, T/C [22]: 83.9%
- viability, T/C [23]: 90.7%
- viability, T/C [24]: 87.2%
- viability, T/C [25]: 65.3%
- viability, T/C [26]: 67%
- viability, T/C [27]: 68%
- viability, T/C [28]: 64%
- viability, T/C [29]: 69.1%
- viability, T/C [30]: 66.6%

SMILES: CC1(C)CCC(CN2CCN(c3ccc(C(=O)NS(=O)(=O)c4ccc(NCC5CCOCC5)c([N+](=O)[O-])c4)c(Oc4cnc5[nH]ccc5c4)c3)CC2)=C(c2ccc(Cl)cc2)C1 + Cc1ccccc1N=Nc1ccc(NC(=O)c2ccnn2C)c(C)c1
- IC50 (second compound 0.1 µM): > 10000 nM
- IC50 (second compound 0.316 µM): > 10000 nM
- IC50 (second compound 1 µM): > 10000 nM
- IC50 (second compound 3.16 µM): > 10000 nM
- IC50 (second compound 10 µM): > 10000 nM
- viability, T/C [31]: 117%
- viability, T/C [32]: 106%
- viability, T/C [33]: 100%
- viability, T/C [34]: 101%
- viability, T/C [35]: 97.3%
- viability, T/C [36]: 65.1%
- viability, T/C [37]: 106%
- viability, T/C [38]: 106%
- viability, T/C [39]: 113%
- viability, T/C [40]: 109%
- viability, T/C [41]: 95.9%
- viability, T/C [42]: 65.8%
- viability, T/C [43]: 103%
- viability, T/C [44]: 105%
- viability, T/C [45]: 108%
- viability, T/C [46]: 94.8%
- viability, T/C [47]: 97.2%
- viability, T/C [48]: 75.4%
- viability, T/C [49]: 94.7%
- viability, T/C [50]: 95.9%
- viability, T/C [51]: 102%
- viability, T/C [52]: 90.3%
- viability, T/C [53]: 89.5%
- viability, T/C [54]: 69.3%
- viability, T/C [55]: 66.1%
- viability, T/C [56]: 65.3%
- viability, T/C [57]: 65.9%
- viability, T/C [58]: 68.9%
- viability, T/C [59]: 67.2%
- viability, T/C [60]: 64.3%

SMILES: CC(C)CC(NC(=O)C(Cc1ccccc1)NC(=O)c1cnccn1)B(O)O (stereo not given) + CC(CO)NC(=O)c1cc(-c2ccc(Cl)cc2)nn(-c2cnn(C)c2)c1=O
- IC50 (second compound 0.1 µM): 4.72 nM
- IC50 (second compound 0.316 µM): 4.44 nM
- IC50 (second compound 1 µM): 4.61 nM
- IC50 (second compound 3.16 µM): 5.03 nM
- IC50 (second compound 10 µM): 3.79 nM
- viability, T/C [1]: 97.9%
- viability, T/C [2]: 75.7%
- viability, T/C [3]: 10.4%
- viability, T/C [4]: 0.34%
- viability, T/C [5]: 0.56%
- viability, T/C [6]: 0.73%
- viability, T/C [7]: 109%
- viability, T/C [8]: 72.6%
- viability, T/C [9]: 6.27%
- viability, T/C [10]: 0.48%
- viability, T/C [11]: 0.41%
- viability, T/C [12]: 0.41%
- viability, T/C [13]: 102%
- viability, T/C [14]: 72%
- viability, T/C [15]: 13.1%
- viability, T/C [16]: 0.32%
- viability, T/C [17]: 0.27%
- viability, T/C [18]: 0.39%
- viability, T/C [19]: 102%
- viability, T/C [20]: 80.1%
- viability, T/C [21]: 13.2%
- viability, T/C [22]: 0.29%
- viability, T/C [23]: 0.26%
- viability, T/C [24]: 0.35%
- viability, T/C [25]: 85.6%
- viability, T/C [26]: 59.8%
- viability, T/C [27]: 11.6%
- viability, T/C [28]: 0.72%
- viability, T/C [29]: 0.38%
- viability, T/C [30]: 0.53%

SMILES: Nc1ccn(C2OC(CO)C(O)C2(F)F)c(=O)n1 (stereo not given) + Cc1ccccc1N=Nc1ccc(NC(=O)c2ccnn2C)c(C)c1
- IC50 (second compound 0.1 µM): 4310 nM
- IC50 (second compound 0.316 µM): 3740 nM
- IC50 (second compound 1 µM): > 10000 nM
- IC50 (second compound 3.16 µM): < 31.6 nM
- IC50 (second compound 10 µM): < 31.6 nM
- viability, T/C [31]: 55.6%
- viability, T/C [32]: 48.1%
- viability, T/C [33]: 52.5%
- viability, T/C [34]: 49.2%
- viability, T/C [35]: 54%
- viability, T/C [36]: 47.9%
- viability, T/C [37]: 54%
- viability, T/C [38]: 44.9%
- viability, T/C [39]: 53.9%
- viability, T/C [40]: 49.8%
- viability, T/C [41]: 49.9%
- viability, T/C [42]: 50%
- viability, T/C [43]: 61%
- viability, T/C [44]: 52%
- viability, T/C [45]: 49.1%
- viability, T/C [46]: 46.9%
- viability, T/C [47]: 48.1%
- viability, T/C [48]: 56.8%
- viability, T/C [49]: 48.7%
- viability, T/C [50]: 47.3%
- viability, T/C [51]: 47.4%
- viability, T/C [52]: 47.9%
- viability, T/C [53]: 45.9%
- viability, T/C [54]: 44.6%
- viability, T/C [55]: 45.1%
- viability, T/C [56]: 46.1%
- viability, T/C [57]: 35.6%
- viability, T/C [58]: 36.2%
- viability, T/C [59]: 37%
- viability, T/C [60]: 41.4%

SMILES: O=C(c1cc(Cc2n[nH]c(=O)c3ccccc23)ccc1F)N1CCN(C(=O)C2CC2)CC1 + Cc1cncc(-c2nc(NCCc3c[nH]c4ccccc34)c3ncn(C(C)C)c3n2)c1
- IC50 (second compound 0.1 µM): > 10000 nM
- IC50 (second compound 0.316 µM): > 10000 nM
- IC50 (second compound 1 µM): > 10000 nM
- IC50 (second compound 3.16 µM): > 10000 nM
- IC50 (second compound 10 µM): < 31.6 nM
- viability, T/C [31]: 122%
- viability, T/C [32]: 120%
- viability, T/C [33]: 119%
- viability, T/C [34]: 114%
- viability, T/C [35]: 103%
- viability, T/C [36]: 94.8%
- viability, T/C [37]: 116%
- viability, T/C [38]: 118%
- viability, T/C [39]: 132%
- viability, T/C [40]: 131%
- viability, T/C [41]: 114%
- viability, T/C [42]: 107%
- viability, T/C [43]: 107%
- viability, T/C [44]: 117%
- viability, T/C [45]: 122%
- viability, T/C [46]: 105%
- viability, T/C [47]: 103%
- viability, T/C [48]: 97.7%
- viability, T/C [49]: 74.7%
- viability, T/C [50]: 68.6%
- viability, T/C [51]: 77.9%
- viability, T/C [52]: 60.3%
- viability, T/C [53]: 55.9%
- viability, T/C [54]: 69.2%
- viability, T/C [55]: 7.27%
- viability, T/C [56]: 8.04%
- viability, T/C [57]: 6.95%
- viability, T/C [58]: 6.36%
- viability, T/C [59]: 5.59%
- viability, T/C [60]: 7.04%
